Target: IRAK4 (Homo sapiens (Human), UniProt Q9NWZ3)
Assay: Determination of IRAK4 kinase activity (IMAP fluorescence polarization, phosphorylation of fluorescent peptide substrate)
Type: biochemical
Conditions: 0.5 nM GST tagged IRAK4, 100 nM peptide substrate RP7030, 100 μM ATP, 30 minutes at 25° C.
How it was run: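 GST-tagged IRAK4 (0.5 nM) phosphorylated 100 nM fluorescent peptide substrate with 100 µM ATP in Tris-HCl pH 7.2, 1 mM MgCl2, 1 mM DTT, 0.01% Tween 20 for 30 min at 25 °C. Phosphorylation read by IMAP nanoparticle binding as fluorescence polarization increase.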

Sequence of IRAK4 (Q9NWZ3 whole entry): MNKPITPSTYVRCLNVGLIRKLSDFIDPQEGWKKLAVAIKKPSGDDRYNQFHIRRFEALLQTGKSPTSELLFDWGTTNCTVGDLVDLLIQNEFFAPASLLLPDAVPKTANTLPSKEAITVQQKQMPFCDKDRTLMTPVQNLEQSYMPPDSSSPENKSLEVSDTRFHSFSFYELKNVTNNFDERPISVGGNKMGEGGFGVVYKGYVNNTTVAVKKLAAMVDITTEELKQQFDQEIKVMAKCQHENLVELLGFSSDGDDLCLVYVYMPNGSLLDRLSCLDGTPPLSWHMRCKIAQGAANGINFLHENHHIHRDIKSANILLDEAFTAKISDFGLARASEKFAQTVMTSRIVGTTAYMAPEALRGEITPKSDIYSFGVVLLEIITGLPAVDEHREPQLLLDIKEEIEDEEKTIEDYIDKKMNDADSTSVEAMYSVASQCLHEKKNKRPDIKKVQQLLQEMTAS

Structure (SMILES) | IC50 [nM]
COc1cc(Nc2ncc(-c3nc4ccncc4s3)c(N[C@@H]3C[C@H](CO)[C@@H](O)[C@H]3O)n2)ccn1 [Example 75, 6-(((1R,2S,3R,4R)-2,3-dihydroxy-4-(hydroxymethyl)cyclopentyl)amino)-2-((2-methoxypyridin-4-yl)amino)-5-(thiazolo[5,4-c]pyridin-2-yl)pyrimidine] | 2
OC[C@H]1C[C@@H](Nc2nc(NC3CCC3)ncc2-c2nc3cnccc3s2)[C@H](O)[C@@H]1O [Example 76, 2-(cyclobutylamino)-6-(((1R,2S,3R,4R)-2,3-dihydroxy-4-(hydroxymethyl)cyclopentyl)amino)-5-(thiazolo[4,5-c]pyridin-2-yl)pyrimidine] | 560
Cc1cc(Nc2ncc(-c3nc4ccncc4s3)c(N[C@@H]3C[C@H](CO)[C@@H](O)[C@H]3O)n2)ccn1 [Example 77, 6-(((1R,2S,3R,4R)-2,3-dihydroxy-4-(hydroxymethyl)cyclopentyl)amino)-2-((2-methylpyridin-4-yl)amino)-5-(thiazolo[5,4-c]pyridin-2-yl)pyrimidine] | 8
OC[C@H]1C[C@@H](Nc2nc(Nc3cccnc3)ncc2-c2nc3ccncc3s2)[C@H](O)[C@@H]1O [Example 78, 6-(((1R,2S,3R,4R)-2,3-dihydroxy-4-(hydroxymethyl)cyclopentyl)amino)-2-(pyridin-3-ylamino)-5-(thiazolo[5,4-c]pyridin-2-yl)pyrimidine] | 13
Cc1cc(Nc2ncc(-c3nc(-c4ccccc4)cs3)c(N[C@@H]3C[C@H](CO)[C@@H](O)[C@H]3O)n2)ccn1 [Example 79, 6-(((1R,2S,3R,4R)-2,3-dihydroxy-4-(hydroxymethyl)cyclopentyl)amino)-2-((2-methylpyridin-4-yl)amino)-5-(4-phenylthiazol-2-yl)pyrimidine] | 8
COc1cc(Nc2ncc(-c3nc(-c4ccccc4)cs3)c(N[C@@H]3C[C@H](CO)[C@@H](O)[C@H]3O)n2)ccn1 [Example 80, 6-(((1R,2S,3R,4R)-2,3-dihydroxy-4-(hydroxymethyl)cyclopentyl)amino)-2-((2-methoxypyridin-4-yl)amino)-5-(4-phenylthiazol-2-yl)pyrimidine] | 98
OC[C@H]1C[C@@H](Nc2nc(Nc3cncnc3)ncc2-c2nc(-c3ccccc3)cs2)[C@H](O)[C@@H]1O [Example 81, 6-(((1R,2S,3R,4R)-2,3-dihydroxy-4-(hydroxymethyl)cyclopentyl)amino)-5-(4-phenylthiazol-2-yl)-2-(pyrimidin-5-ylamino)pyrimidine] | 94
OC[C@H]1C[C@@H](Nc2nc(Nc3cccnc3)ncc2-c2nc(-c3ccccc3)cs2)[C@H](O)[C@@H]1O [Example 82, 6-(((1R,2S,3R,4R)-2,3-dihydroxy-4-(hydroxymethyl)cyclopentyl)amino)-5-(4-phenyithiazol-2-yl)-2-(pyridin-3-ylamino)pyrimidine] | 3210
Nc1ncc(-c2nc3cccnc3s2)c(N[C@@H]2C[C@H](CO)[C@@H](O)[C@H]2O)n1 [Example 83, (1R,2S,3R,5R)-3-((2-amino-5-(thiazolo[5,4-b]pyridin-2-yl)pyrimidin-4-yl)amino)-5-(hydroxymethyl)cyclopentane-1,2-diol] | 1.03
Cc1nc(Nc2ccnc(F)c2)nc(N[C@@H]2C[C@H](CO)[C@@H](O)[C@H]2O)c1-c1nc2ccccc2s1 [Example 86, (1R,2S,3R,5R)-3-((5-(benzo[d]thiazol-2-yl)-2-((2-fluoropyridin-4-yl)amino)-6-methylpyrimidin-4-yl)amino)-5-(hydroxymethyl)cyclopentane-1,2-diol] | 430
Cc1cc(Nc2nc(C)c(-c3nc4ccccc4s3)c(N[C@@H]3C[C@H](CO)[C@@H](O)[C@H]3O)n2)cc(C)n1 [Example 87, (1R,2S,3R,5R)-3-((5-(benzo[d]thiazol-2-yl)-2-((2,6-dimethylpyridin-4-yl)amino)-6-methylpyrimidin-4-yl)amino)-5-(hydroxymethyl)cyclopentane-1,2-diol] | 119
Cc1nc(Nc2ccc(Cl)cc2)nc(N[C@@H]2C[C@H](CO)[C@@H](O)[C@H]2O)c1-c1nc2ccccc2s1 [Example 88, (1R,2S,3R,5R)-3-((5-(benzo[d]thiazol-2-yl)-2-((4-chlorophenyl)amino)-6-methylpyrimidin-4-yl)amino)-5-(hydroxymethyl)cyclopentane-1,2-diol] | 6370
Cc1nc(NCCCN2CCN(C)CC2)nc(N[C@@H]2C[C@H](CO)[C@@H](O)[C@H]2O)c1-c1nc2ccccc2s1 [Example 89, (1R,2S,3R,5R)-3-((5-(benzo[d]thiazol-2-yl)-6-methyl-2-((3-(4-methylpiperazin-1-yl)propyl)amino)pyrimidin-4-yl)amino)-5-(hydroxymethyl)cyclopentane-1,2-diol] | 6090
Cc1nc(NC2CC2)nc(N[C@@H]2C[C@H](CO)[C@@H](O)[C@H]2O)c1-c1nc2ccccc2s1 [Example 90, (1R,2S,3R,5R)-3-((5-(benzo[d]thiazol-2-yl)-2-(cyclopropylamino)-6-methylpyrimidin-4-yl)amino)-5-(hydroxymethyl)cyclopentane-1,2-diol] | 5030
Cc1nc(N2CCC(N)CC2)nc(N[C@@H]2C[C@H](CO)[C@@H](O)[C@H]2O)c1-c1nc2ccccc2s1 [Example 92, (1R,2S,3R,5R)-3-((2-(4-aminopiperidin-1-yl)-5-(benzo[d]thiazol-2-yl)-6-methylpyrimidin-4-yl)amino)-5-(hydroxymethyl)cyclopentane-1,2-diol] | 11400
Cc1nc(NCC2CCNCC2)nc(N[C@@H]2C[C@H](CO)[C@@H](O)[C@H]2O)c1-c1nc2ccccc2s1 [Example 93, (1R,2S,3R,5R)-3-((5-(benzo[d]thiazol-2-yl)-6-methyl-2-((piperidin-4-ylmethyl)amino)pyrimidin-4-yl)amino)-5-(hydroxymethyl)cyclopentane-1,2-diol] | 13100
COc1cccc(Nc2nc(C)c(-c3nc4ccccc4s3)c(N[C@@H]3C[C@H](CO)[C@@H](O)[C@H]3O)n2)c1 [Example 94, (1R,2S,3R,5R)-3-((5-(benzo[d]thiazol-2-yl)-2-((3-methoxyphenyl)amino)-6-methylpyrimidin-4-yl)amino)-5-(hydroxymethyl)cyclopentane-1,2-diol] | 870
Cc1nc(N)nc(N[C@@H]2C[C@H](CO)[C@@H](O)[C@H]2O)c1-c1nc(Br)cs1 [Example 95, (1R,2S,3R,5R)-3-((2-amino-5-(4-bromothiazol-2-yl)-6-methylpyrimidin-4-yl)amino)-5-(hydroxymethyl)cyclopentane-1,2-diol] | 4650
Cc1nc(Nc2ccccn2)nc(N[C@@H]2C[C@H](CO)[C@@H](O)[C@H]2O)c1-c1nc2ccccc2s1 [Example 97, (1R,2S,3R,5R)-3-((5-(benzo[d]thiazol-2-yl)-6-methyl-2-(pyridin-2-ylamino)pyrimidin-4-yl)amino)-5-(hydroxymethyl)cyclopentane-1,2-diol] | 11300
Cc1nc(N2CCC(C)CC2)nc(N[C@@H]2C[C@H](CO)[C@@H](O)[C@H]2O)c1-c1nc2ccccc2s1 [Example 98, (1R,2S,3R,5R)-3-((5-(benzo[d]thiazol-2-yl)-6-methyl-2-(4-methylpiperidin-1-yl)pyrimidin-4-yl)amino)-5-(hydroxymethyl)cyclopentane-1,2-diol] | 948
Cc1nc(Nc2cccnc2)nc(N[C@@H]2C[C@H](CO)[C@@H](O)[C@H]2O)c1-c1nc2ccccc2s1 [Example 99, (1R,2S,3R,5R)-3-((5-(benzo[d]thiazol-2-yl)-6-methyl-2-(pyridin-3-ylamino)pyrimidin-4-yl)amino)-5-(hydroxymethyl)cyclopentane-1,2-diol] | 292
Cc1cc(Nc2nc(C)c(-c3nc4ccccc4s3)c(N[C@@H]3C[C@H](CO)[C@@H](O)[C@H]3O)n2)ccn1 [Example 100, (1R,2S,3R,5R)-3-((5-(benzo[d]thiazol-2-yl)-6-methyl-2-((2-methylpyridin-4-yl)amino)pyrimidin-4-yl)amino)-5-(hydroxymethyl)cyclopentane-1,2-diol] | 138
Cc1nc(N)nc(N[C@@H]2C[C@H](CO)[C@@H](O)[C@H]2O)c1-c1nc2ccccc2o1 [Example 101, (1R,2S,3R,5R)-3-((2-amino-5-(benzo[d]oxazol-2-yl)-6-methylpyrimidin-4-yl)amino)-5-(hydroxymethyl)cyclopentane-1,2-diol] | 992
Cc1nc(Nc2cccc(C(N)=O)c2)nc(N[C@@H]2C[C@H](CO)[C@@H](O)[C@H]2O)c1-c1nc2ccccc2s1 [Example 102, 3-((5-(benzo[d]thiazol-2-yl)-4-(((1R,2S,3R,4R)-2,3-dihydroxy-4-(hydroxymethyl)cyclopentyl)amino)-6-methylpyrimidin-2-yl)amino)benzamide] | 142
Cc1nc(Nc2ccc(O)cc2)nc(N[C@@H]2C[C@H](CO)[C@@H](O)[C@H]2O)c1-c1nc2ccccc2s1 [Example 103, (1R,2S,3R,5R)-3-((5-(benzo[d]thiazol-2-yl)-2-((4-hydroxyphenyl)amino)-6-methylpyrimidin-4-yl)amino)-5-(hydroxymethyl)cyclopentane-1,2-diol] | 243
Cc1nc(Nc2cccc(O)c2)nc(N[C@@H]2C[C@H](CO)[C@@H](O)[C@H]2O)c1-c1nc2ccccc2s1 [Example 104, (1R,2S,3R,5R)-3-((5-(benzo[d]thiazol-2-yl)-2-((3-hydroxyphenyl)amino)-6-methylpyrimidin-4-yl)amino)-5-(hydroxymethyl)cyclopentane-1,2-diol] | 219
COc1cc(Nc2nc(C)c(-c3nc4ccccc4s3)c(N[C@@H]3C[C@H](CO)[C@@H](O)[C@H]3O)n2)ccn1 [Example 105, (1R,2S,3R,5R)-3-((5-(benzo[d]thiazol-2-yl)-2-((2-methoxypyridin-4-yl)amino)-6-methylpyrimidin-4-yl)amino)-5-(hydroxymethyl)cyclopentane-1,2-diol] | 93
